One assay has as its target T1, COX II (Homo sapiens, UniProt P35354).
T1 sequence (P35354 18-604): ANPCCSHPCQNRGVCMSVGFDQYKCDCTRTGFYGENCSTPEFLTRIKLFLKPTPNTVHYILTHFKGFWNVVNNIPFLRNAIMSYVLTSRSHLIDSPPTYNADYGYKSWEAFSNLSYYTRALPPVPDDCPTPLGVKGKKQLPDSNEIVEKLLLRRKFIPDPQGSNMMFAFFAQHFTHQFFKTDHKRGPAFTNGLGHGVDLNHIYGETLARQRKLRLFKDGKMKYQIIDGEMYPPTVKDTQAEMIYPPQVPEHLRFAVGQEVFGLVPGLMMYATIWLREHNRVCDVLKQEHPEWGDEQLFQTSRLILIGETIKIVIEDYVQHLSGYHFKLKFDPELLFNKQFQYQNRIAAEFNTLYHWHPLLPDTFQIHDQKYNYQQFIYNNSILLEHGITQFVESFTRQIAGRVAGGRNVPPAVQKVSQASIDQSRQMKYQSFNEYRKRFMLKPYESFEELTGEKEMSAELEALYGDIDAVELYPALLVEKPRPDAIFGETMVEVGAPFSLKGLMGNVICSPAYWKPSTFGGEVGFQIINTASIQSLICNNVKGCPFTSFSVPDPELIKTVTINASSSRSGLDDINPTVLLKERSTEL
The experiment in a line: radiometric assay, COX II inhibition (human recombinant, baculovirus expressed, partially purified). Type of assay: biochemical. Also on record: A 1.8 Kb DNA fragment containing the coding region of human COX II was generated by PCR; made in house; host or cells: Sf9 insect cells, baculovirus. As to conditions: radiometric assay, human recombinant baculovirus expressed enzyme; read-out: COX II IC50 (Table 2). As for the experimental part:
(§1) Human prostaglandin G/H synthase I and II ("COX I" and "COX II") were expressed in the baculovirus expression system and purified to high levels.
(§2) As described above, human recombinant COX I and COX II were cloned and expressed in a baculovirus system. Partially purified COX I and COX II enzymes were used for screening compounds for their ability to inhibit COX I and COX II activity, as described below.
(§3) Compound (16), in 2 μl DMSO, and control samples (carrier vehicles only) were mixed with COX I or COX II samples (e.g. fractions from the chromatography columns) in polypropylene tubes and preincubated with 2 mM phenol for 5 minutes and then with 1 μM hematin for an additional 5 minutes. The 150 μl reaction mixture consisted of 50 mM Tris --HCl, pH 7.9, 2 mM EDTA, 10% glycerol, 200 μM phenol, 1 μM hematin, 1-25 μl sample and 20 μM 1-[^14 C] arachidonate (80.000-100.000 cpm/tube). After 45 seconds at room temperature, the reaction was terminated by adding 200 μl of 2N HCl and 750 μl water. An aliquot (950 μl) of the reaction mixture was loaded onto a 1 ml C~ Sep-Pak (J. T. Baker, Phillipsburg, N.J.) which had been previously washed with 2-3 ml methanol and equilibrated with 5-6 ml distilled water. Oxygenated products were quantitatively eluted with 3 ml of acetonitrile, H2 O and acetic acid (50:50:0.1, v/v) and the radioactivity in the eluate determined in a scintillation counter.
(§4) Human recombinant 10 min incubation with Compound (16)
(§5) baculovirus 45 sec incubation with 20 μM AA
(§6) partially purified Separation of radioactive products

The next assay addresses COX I (Homo sapiens, UniProt P23219). Kind of assay: radiometric assay, COX I inhibition (human recombinant, baculovirus expressed, partially purified). Type of assay: biochemical. Also on record: A 2 Kb fragment containing the coding region of COX I; made in house; host or cells: Sf9 insect cells, baculovirus (cDNA from Oxford Biomedical Research). As to conditions: radiometric assay, human recombinant baculovirus expressed enzyme; read-out: COX I IC50 (Table 2). As for the experimental part:
as §1, §2, §3, §4, §5, §6

Where only a bound is given, the exact number is not on record here.

The text below walks through data of patent US5622948A, “Pyrrole pyridazine and pyridazinone anti-inflammatory agents” (Syntex (U.S.A.) Inc., priority 1994, dated 1997).

In general, IC50 refers to the concentration that inhibits the measured activity by half.

COX I, sequence (P23219 24-599): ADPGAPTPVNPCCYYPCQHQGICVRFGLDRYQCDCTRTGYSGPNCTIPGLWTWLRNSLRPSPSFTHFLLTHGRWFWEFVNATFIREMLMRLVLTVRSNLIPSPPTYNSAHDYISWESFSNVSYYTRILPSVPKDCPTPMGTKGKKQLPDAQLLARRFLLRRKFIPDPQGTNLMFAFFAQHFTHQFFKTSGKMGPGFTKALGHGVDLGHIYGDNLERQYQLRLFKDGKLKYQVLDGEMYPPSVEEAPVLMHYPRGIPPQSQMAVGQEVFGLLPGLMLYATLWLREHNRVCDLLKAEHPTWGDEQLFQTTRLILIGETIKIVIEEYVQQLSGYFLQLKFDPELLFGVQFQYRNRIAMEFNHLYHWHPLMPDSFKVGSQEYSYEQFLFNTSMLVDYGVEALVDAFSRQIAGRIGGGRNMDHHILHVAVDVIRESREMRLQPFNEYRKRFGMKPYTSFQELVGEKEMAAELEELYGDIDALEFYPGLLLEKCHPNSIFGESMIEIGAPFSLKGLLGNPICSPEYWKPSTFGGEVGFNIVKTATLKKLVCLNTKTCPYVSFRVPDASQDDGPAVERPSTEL

As for `CSc1cc(Cc2ccc(=O)[nH]n2)n(C)c1C(=O)c1ccc(C)cc1` [Compound 107, 6-(1-methyl-5-(4-methyl-benzoyl)-4-methylthio-1H-pyrrol-2-ylmethyl)-2H-pyridazin-3-one], the values for the IC50 at COX II and on COX I were 2.3 µM and 21 µM, respectively.
On the same counts, the results for `CCc1ccc(C(=O)c2c(C)cc(Cc3ccc(=O)[nH]n3)n2C)cc1` [Compound 36, 6-[1,4-dimethyl-5-(4-ethyl-benzoyl)-1H-pyrrol-2-ylmethyl]-2H-pyridazin-3-one] are 0.4 µM and 38 µM.
Consider `Cc1cccc(C)c1Cn1nc(Cc2cc(C)c(C(=O)c3ccc(Cl)cc3)n2C)ccc1=O` [Compound 151, 6-[5-(4-chloro-benzoyl)-1,4,-dimethyl-1H-pyrrol-2-ylmethyl]-2-(2,6-dimethylbenzyl)-2H-pyridazin-3-one], for which the IC50 is less than 0.1 µM at COX II and 3.8 µM at COX I.
For `Cn1c(Cc2ccc(=O)[nH]n2)ccc1C(=O)c1ccc(C2CC2)cc1` [Compound 42, 6-[5-(4-cyclopropyl-benzoyl)-1-methyl-1H-pyrrol-2-ylmethyl]-2H-pyridazin-3-one], the results for the IC50 on COX II and at COX I were 0.72 µM and 82 µM, respectively.
On the same counts, the results for `CC[C@H](C)NC(=O)Cn1nc(Cc2cc(C)c(C(=O)c3ccc(Cl)cc3)n2C)ccc1=O` [Compound 157, S--N-sec-butyl-2-{3-[5-(4-chloro-benzoyl)-1,4,-dimethyl-1H-pyrrol-2-ylmethyl]-6-oxo-6H-pyridazin-1-yl}-acetamide] are 1.63 µM and 24.4 µM.
In the same order, the values of `Cc1cc(Cc2ccc(=O)n(CCO)n2)n(C)c1C(=O)c1ccc(Cl)cc1` [Compound 118, 6-[5-(4-chloro-benzoyl)-1,4,-dimethyl-1H-pyrrol-2-ylmethyl]-2-(2-hydroxy-ethyl)-2H-pyridazin-3-one] are 0.8 µM and 76 µM.
In the same order, the values of `CCc1ccc(C(=O)c2ccc(Cc3ccc(=O)[nH]n3)n2C)cc1` [Compound 46, 6-[5-(4-ethyl-benzoyl)-1-methyl-1H-pyrrol-2-ylmethyl]-2H-pyridazin-3-one] are 7.2 µM and greater than 100 µM.
For the molecule `C=Cc1ccc(C(=O)c2c(C)cc(Cc3ccc(=O)[nH]n3)n2C)cc1` [Compound 33, 6-[1,4-dimethyl-5-(4-vinyl-benzoyl)-1H-pyrrol-2-ylmethyl]-2H-pyridazin-3-one], the figures for the IC50 on COX II and at COX I were 0.44 µM and 31.7 µM, respectively.
In the same order, the values of `Cc1cc(Cc2cc(C)c(=O)[nH]n2)n(C)c1C(=O)c1ccc(Cl)cc1` [Compound 141, 6-[5-(4-chloro-benzoyl)-1,4-dimethyl-1H-pyrrol-2-ylmethyl]-4-methyl-2H-pyridazin-3-one] are 0.125 µM and 4.9 µM.
Regarding `Cc1ccc(C(=O)c2ccc(Cc3ccc(=O)[nH]n3)n2C)cc1` [Compound 100, 6-[1-methyl-5-(4-methyl-benzoyl)-1H-pyrrol-2-ylmethyl]-2H-pyridazin-3-one], the concentration for half-maximal inhibition (IC50) at COX II is 1.5 µM; on COX I it was 300 µM.
On the same counts, the results for `Cc1cc(Cc2ccc(=O)[nH]n2)n(C)c1C(=O)c1cccs1` [Compound 144, 6-[1,4-dimethyl-5-(thienyl-2-carbonyl)-1H-pyrrol-2-ylmethyl]-2H-pyridazin-3-one] are 0.59 µM and 1 µM.
In the case of `Cc1cc(Cc2ccc(=O)n(Cc3ccccc3)n2)n(C)c1C(=O)c1ccc(Cl)cc1` [Compound 121, 2-benzyl-6-[5-(4-chloro-benzoyl)-1,4,-dimethyl-1H-pyrrol-2-ylmethyl]-2H-pyridazin-3-one], the IC50 came out at 0.23 µM at COX II and 6.3 µM on COX I.
As to “6-(5-benzoyl-3-chloro-4-methyl-1H-pyrrol-2-ylmethyl)-2H-pyridazin-3-one [Compound 89]”, the IC50 at COX II is 2.3 µM; at COX I, 8.1 µM.
On the same counts, the results for `Cc1cc(Cc2ccc(=O)n(CO)n2)n(C)c1C(=O)c1ccc(Cl)cc1` [Compound 153, 6-[5-(4-chloro-benzoyl)-1,4,-dimethyl-1H-pyrrol-2-ylmethyl]-2-(hydroxy-methyl)-2H-pyridazin-3-one] are 0.54 µM and greater than 100 µM.
For the molecule `COc1ccc(C(=O)c2cc(Cl)c(Cc3ccc(=O)[nH]n3)n2C)cc1` [Compound 88, 6-[3-chloro-5-(4-methoxy-benzoyl)-1-methyl-1H-pyrrol-2-ylmethyl]-2H-pyridazin-3-one], the IC50 was 0.55 µM on COX II and 100 µM at COX I.
With `Cc1cc(Cc2ccc(=O)n(CCCl)n2)n(C)c1C(=O)c1ccc(Cl)cc1` [Compound 131, 6-[5-(4-chloro-benzoyl)-1,4-dimethyl-1H-pyrrol-2-ylmethyl]-2-(2-chloroethyl)-2H-pyridazin-3-one], the results for the IC50 on COX II and on COX I were 0.12 µM and 5.3 µM, respectively.
As for `CNC(=O)Cn1nc(Cc2cc(C)c(C(=O)c3ccc(Cl)cc3)n2C)ccc1=O` [Compound 125, 2-{3-[5-(4-chloro-benzoyl)-1,4,-dimethyl-1H-pyrrol-2-ylmethyl]-6-oxo-6H-pyridazin-1-yl}--N-methyl acetamide], the results for the IC50 at COX II and on COX I were 1.6 µM and less than 10 µM, respectively.
`Cc1ccc(C(=O)c2cc(Cl)c(Cc3ccc(=O)[nH]n3)n2C)cc1` [Compound 87, 6-[3-chloro-1-methyl-5-(4-methyl-benzoyl)-1H-pyrrol-2-ylmethyl]-2H-pyridazin-3-one]: the half-inhibitory concentration (IC50) is 0.9 µM at COX II and greater than 1000 µM on COX I.
As to `Cc1cc(Cc2ccc(=O)n(CCNS(C)(=O)=O)n2)n(C)c1C(=O)c1ccc(Cl)cc1` [Compound 136, N-(2-{3-[5-(4-chloro-benzoyl)-1,4,-dimethyl-1H-pyrrol-2-ylmethyl]-6-oxo-6H-pyridazin-1-yl}-ethyl)-methanesulfonamide], the figures for the IC50 at COX II and on COX I were 3.06 µM and 829 µM, respectively.
On to `Cc1cc(Cc2ccc(=O)n(Cc3ccc(Cl)cc3)n2)n(C)c1C(=O)c1ccc(Cl)cc1` [Compound 133, 6-[5-(4-chloro-benzoyl)-1,4,-dimethyl-1H-pyrrol-2-ylmethyl]-2-(4-chlorobenzyl)-2H-pyridazin-3-one], for which the values for the half-inhibitory concentration (IC50) on COX II and on COX I were 0.07 µM and 3.7 µM, respectively.
Regarding `Cc1cc(Cc2ccc(=O)[nH]n2)n(C)c1C(=O)c1ccc(F)cc1` [Compound 142, 6-[1,4-dimethyl-5-(4-fluoro-benzoyl)-1H-pyrrol-2-ylmethyl]-2H-pyridazin-3-one], the IC50 is 4.16 µM on COX II and 67 µM at COX I.
In the same order, the values of `C=Cc1ccc(C(=O)c2ccc(Cc3ccc(=O)[nH]n3)n2C)cc1` [Compound 54, 6-[1-methyl-5-(4-vinyl-benzoyl)-1H-pyrrol-2-ylmethyl]-2H-pyridazin-3-one] are 0.44 µM and 190 µM.
On the same counts, the results for `Cc1cc(C(C#N)c2ccc(=O)[nH]n2)n(C)c1C(=O)c1ccc(Cl)cc1` (stereo not drawn) [Compound 9, [5-(4-chloro-benzoyl)-1,4-dimethyl-1H-pyrrol-2-yl]-(6-oxo-1,6-dihydro-pyridazin-3-yl)acetonitrile] are 0.63 µM and greater than 100 µM.
On the same counts, the results for `Cc1cc(Cc2ccc(=O)n(CCCO)n2)n(C)c1C(=O)c1ccc(Cl)cc1` [Compound 140, 6-[5-(4-chloro-benzoyl)-1,4,-dimethyl-1H-pyrrol-2-ylmethyl]-2-(3-hydroxy-1-propyl)-2H-pyridazin-3-one] are 0.53 µM and 48 µM.
